These results are taken from ChEMBL document CHEMBL3045440, “Determination of stereoselective interaction between enantiomers of chiral gamma-aryl-1H-1,2,4-triazole derivatives and Penicillium digitatum” (J Agric Food Chem, 2009).

The target in data set [1] is T1, Cytochrome P450 14alpha-demethylase (Penicillium digitatum, UniProt A1XG20).
T1 sequence (A1XG20 whole entry): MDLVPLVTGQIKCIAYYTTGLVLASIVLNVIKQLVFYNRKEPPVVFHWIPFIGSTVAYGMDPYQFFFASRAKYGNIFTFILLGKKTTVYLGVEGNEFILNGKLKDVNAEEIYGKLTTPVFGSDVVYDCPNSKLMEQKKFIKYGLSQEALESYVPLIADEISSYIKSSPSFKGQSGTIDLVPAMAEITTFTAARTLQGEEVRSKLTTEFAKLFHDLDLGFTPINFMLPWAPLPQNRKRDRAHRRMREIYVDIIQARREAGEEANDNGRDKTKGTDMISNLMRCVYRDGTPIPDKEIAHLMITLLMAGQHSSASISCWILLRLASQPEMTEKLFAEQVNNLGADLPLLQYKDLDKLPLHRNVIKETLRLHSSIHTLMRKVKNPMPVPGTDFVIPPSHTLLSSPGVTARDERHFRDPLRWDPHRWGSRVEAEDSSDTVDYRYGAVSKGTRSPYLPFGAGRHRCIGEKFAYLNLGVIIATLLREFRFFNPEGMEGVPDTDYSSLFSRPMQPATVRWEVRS
The experiment in a line: Binding affinity to Penicillium digitatum CYP51 expressed in Escherichia coli BL21 (DE3) cells by binding spectrum method.

In data set [2] the target is T1, Cytochrome P450 14alpha-demethylase. The experiment in a line: Binding affinity to Penicillium digitatum CYP51 expressed in Escherichia coli BL21 (DE3) cells assessed as absorption spectral changes with maximum at 420-430 nm and trough at 385-400 nm (type II) by binding spectrum method.
In data set [3] the test system is Penicillium digitatum. The experiment in a line: Fungicidal activity against Penicillium digitatum at 50 mg/l at 26 degC after 48 hr by growth inhibition test. Conditions: read-out: GI; call rule not given here. It is filed as functional.
The subject of data set [4] is Penicillium digitatum. The data set is described as follows: Fungicidal activity against Penicillium digitatum at 26 degC after 48 hr by growth inhibition test. It is filed as functional, organism-based.
Data set [5] concerns the target T1, Cytochrome P450 14alpha-demethylase. The experiment in a line: Binding affinity to Penicillium digitatum CYP51 expressed in Escherichia coli BL21 (DE3) cells assessed as absorption spectral changes with maximum at 390 nm and trough at 420 nm (type I) by binding spectrum method.
Data set [6] shares this target. The experiment in a line: Binding affinity to Penicillium digitatum CYP51 expressed in Escherichia coli BL21 (DE3) cells assessed as absorption spectral changes with maximum at 420-430 nm and trough at 390-410 nm (type II) by binding spectrum method.

≈ marks a conversion by molar mass, not a printed value.

In the case of `CC[C@H](CCn1cncn1)c1ccccc1`, in data set [1] (read-out: Kd), the Kd turned out to be 34 nM. For the same compound, in data set [2], the outcome was Active. In data set [3], the inhibition of growth at 50 µg/mL is 84%. Besides, it took 0.577 µg/mL (≈ 2.68 µM) to reach a half-maximal effect in data set [4] (EC50).

As to `CC[C@@H](CCn1cncn1)c1ccccc1`, the Kd in data set [1] (read-out: Kd) is 1660 nM. In data set [2], the result was Active. The inhibition of growth at 50 µg/mL in data set [3] was determined as 20%. Besides, the EC50 in data set [4] came to 89.6 µg/mL (≈ 416 µM).

For `CC[C@H](CCn1cncn1)c1ccc(F)cc1`, the Kd in data set [1] (read-out: Kd) worked out at 81 nM. Further, the result in data set [2] was Active. Besides, the inhibition of growth at 50 µg/mL in data set [3] was 88%.

On to `CC[C@@H](CCn1cncn1)c1ccc(F)cc1`, for which the Kd in data set [1] (read-out: Kd) was determined as 230 nM. Besides, the outcome in data set [2] was Active. The inhibition of growth at 50 µg/mL in data set [3] was 78%.

Consider `CC[C@H](CCn1cncn1)c1ccc(Cl)cc1`, for which the Kd in data set [1] (read-out: Kd) stood at 150 nM. In addition, the outcome in data set [2] was Active. Further, the inhibition of growth at 50 µg/mL in data set [3] worked out at 92%. Moreover, it took 0.587 µg/mL (≈ 2.35 µM) to reach a half-maximal effect in data set [4] (EC50).

Regarding `CC[C@@H](CCn1cncn1)c1ccc(Cl)cc1`, the Kd in data set [1] (read-out: Kd) amounted to 1140 nM. For the same compound, the result in data set [2] was Active. Besides, the inhibition of growth at 50 µg/mL in data set [3] was 23%. The EC50 in data set [4] worked out at 61.1 µg/mL (≈ 245 µM).

Regarding `CC[C@H](CCn1cncn1)c1ccc(OC)cc1`, the Kd in data set [1] (read-out: Kd) is 63 nM. Further, the outcome in data set [2] was Active. Further, in data set [3], the inhibition of growth at 50 µg/mL was determined as 89%.

Turning to `CC[C@@H](CCn1cncn1)c1ccc(OC)cc1`, the Kd in data set [1] (read-out: Kd) worked out at 505 nM. Also, the outcome in data set [2] was Active. Also, the inhibition of growth at 50 µg/mL in data set [3] was determined as 77%.

On to `CCC[C@H](CCn1cncn1)c1ccccc1`, for which the Kd in data set [1] (read-out: Kd) worked out at 140 nM. Further, the outcome in data set [2] was Active. Further, in data set [3], the inhibition of growth at 50 µg/mL amounted to 90%.

Consider `CCC[C@@H](CCn1cncn1)c1ccccc1`, for which, in data set [1] (read-out: Kd), the Kd worked out at 210 nM. The result in data set [2] was Active. The inhibition of growth at 50 µg/mL in data set [3] came out at 79%.

`CCC[C@H](CCn1cncn1)c1ccc(F)cc1`: in data set [1] (read-out: Kd), the Kd stood at 250 nM. In data set [2], the result was Active. Also, the inhibition of growth at 50 µg/mL in data set [3] amounted to 89%.

Turning to `CCC[C@@H](CCn1cncn1)c1ccc(F)cc1`, in data set [1] (bl21-de3), the Kd entry was “Not Active”. The inhibition of growth at 50 µg/mL in data set [3] is 78%.

On to `CCC[C@H](CCn1cncn1)c1ccc(OC)cc1`, for which, in data set [1] (read-out: Kd), the Kd was determined as 150 nM. The outcome in data set [2] was Active. In addition, in data set [3], the inhibition of growth at 50 µg/mL turned out to be 90%. Besides, the EC50 in data set [4] was determined as 0.603 µg/mL (≈ 2.33 µM).

On to `CCC[C@@H](CCn1cncn1)c1ccc(OC)cc1`, for which, in data set [1] (bl21-de3), the Kd result is recorded as “Not Active”. The inhibition of growth at 50 µg/mL in data set [3] is < 5%. This compound came in with an EC50 in data set [4] of 138 µg/mL (≈ 534 µM).

For the compound `CCCC[C@H](CCn1cncn1)c1ccccc1`, the Kd in data set [1] (read-out: Kd) is 760 nM. The result in data set [2] was Active. In addition, the inhibition of growth at 50 µg/mL in data set [3] was determined as 73%.

As to `CCCC[C@@H](CCn1cncn1)c1ccccc1`, the Kd entry in data set [1] (bl21-de3) is reported as “Not Active”. For the same compound, in data set [3], the inhibition of growth at 50 µg/mL is 65%.

As to `CCCC[C@H](CCn1cncn1)c1ccc(F)cc1`, the Kd in data set [1] (read-out: Kd) was 90 nM. The result in data set [2] was Active. The inhibition of growth at 50 µg/mL in data set [3] stood at 100%. Besides, a half-maximal response in data set [4] (EC50) required 0.88 µg/mL (≈ 3.37 µM).

As to `CCCC[C@@H](CCn1cncn1)c1ccc(F)cc1`, the Kd in data set [1] (read-out: Kd) came to 150 nM. Moreover, the result in data set [2] was Active. In addition, in data set [3], the inhibition of growth at 50 µg/mL came to 95%. Also, the EC50 in data set [4] is 1.15 µg/mL (≈ 4.4 µM).

Turning to `CCCC[C@H](CCn1cncn1)c1ccc(Cl)cc1`, in data set [1] (read-out: Kd), the Kd stood at 350 nM. Also, in data set [2], the outcome was Active. In data set [3], the inhibition of growth at 50 µg/mL turned out to be 88%.

For `CCCC[C@@H](CCn1cncn1)c1ccc(Cl)cc1`, the Kd in data set [1] (read-out: Kd) turned out to be 340 nM. The inhibition of growth at 50 µg/mL in data set [3] worked out at 83%. The outcome in data set [5] was Active.

On to `CCCC[C@H](CCn1cncn1)c1ccc(OC)cc1`, for which the Kd in data set [1] (read-out: Kd) was determined as 49 nM. Moreover, in data set [2], the outcome was Active. Moreover, the inhibition of growth at 50 µg/mL in data set [3] was found to be 100%. In data set [4], the response was half-maximal at 0.62 µg/mL (≈ 2.27 µM) (EC50).

In the case of `CCCC[C@@H](CCn1cncn1)c1ccc(OC)cc1`, the Kd in data set [1] (read-out: Kd) amounted to 180 nM. Further, the result in data set [2] was Active. Moreover, in data set [3], the inhibition of growth at 50 µg/mL turned out to be 97%. The compound further registered a 50% effective concentration (EC50) in data set [4] of 0.97 µg/mL (≈ 3.55 µM).

`CCCC[C@H](CCn1cncn1)c1ccc(C)cc1`: the Kd in data set [1] (read-out: Kd) was 46 nM. The outcome in data set [2] was Active. For the same compound, the inhibition of growth at 50 µg/mL in data set [3] came out at 93%.

Consider `CCCC[C@@H](CCn1cncn1)c1ccc(C)cc1`, for which the Kd in data set [1] (read-out: Kd) is 1220 nM. For the same compound, the result in data set [2] was Active. Moreover, in data set [3], the inhibition of growth at 50 µg/mL worked out at 87%.

With `CC(C)(C)C(O)/C(=C/c1ccc(Cl)cc1Cl)n1cncn1` (stereo not given) [DINICONAZOLE], the inhibition of growth at 50 µg/mL in data set [3] was 100%. Besides, it took 0.09 µg/mL (≈ 0.276 µM) to reach a half-maximal effect in data set [4] (EC50).

`CC(C)(C)C(O)/C(=C\c1ccc(Cl)cc1Cl)n1cncn1` (stereo not given) [DINICONAZOLE]: the Kd in data set [1] (read-out: Kd) was 120 nM. The outcome in data set [6] was Active.

On to `CC(C)(C)C(O)(CCc1ccc(Cl)cc1)Cn1cncn1` (stereo not given) [TEBUCONAZOLE], for which the equilibrium dissociation constant (Kd) in data set [1] (read-out: Kd) turned out to be 320 nM. Besides, the inhibition of growth at 50 µg/mL in data set [3] was 100%. Further, in data set [5], the result was Active. In data set [4], this compound yielded an EC50 of 0.37 µg/mL (≈ 1.2 µM).

Take `CC(C)(C)C(=O)C(Oc1ccc(Cl)cc1)n1cncn1` (stereo not given) [TRIADIMEFON]: in data set [1] (read-out: Kd), the Kd came out at 990 nM. Also, the inhibition of growth at 50 µg/mL in data set [3] was found to be 100%. Moreover, the outcome in data set [6] was Active. Further, in data set [4], the EC50 was 2.27 µg/mL (≈ 7.73 µM).

For `CC(C)(C)C(O)C(Oc1ccc(Cl)cc1)n1cncn1` (stereo not given) [TRIADIMENOL], the Kd in data set [1] (read-out: Kd) is 640 nM. In addition, the inhibition of growth at 50 µg/mL in data set [3] is 100%. Further, in data set [6], the result was Active. The compound further displayed an EC50 in data set [4] of 1.44 µg/mL (≈ 4.87 µM).
